{"source": "paper PMC6286348", "about": "“Inhibitor binding mode and allosteric regulation of Na^+-glucose symporters” (Nature Communications, 2018)", "key": {"hSGLT1 D268H": {"biological_target": "T1, hSGLT1 D268H (Homo sapiens, UniProt P13866, D268H)", "T1 construct": "expressed in transfected cells; host or cells: Xenopus laevis oocytes injected with cRNA", "T1 sequence (P13866 1-664 D268H)": "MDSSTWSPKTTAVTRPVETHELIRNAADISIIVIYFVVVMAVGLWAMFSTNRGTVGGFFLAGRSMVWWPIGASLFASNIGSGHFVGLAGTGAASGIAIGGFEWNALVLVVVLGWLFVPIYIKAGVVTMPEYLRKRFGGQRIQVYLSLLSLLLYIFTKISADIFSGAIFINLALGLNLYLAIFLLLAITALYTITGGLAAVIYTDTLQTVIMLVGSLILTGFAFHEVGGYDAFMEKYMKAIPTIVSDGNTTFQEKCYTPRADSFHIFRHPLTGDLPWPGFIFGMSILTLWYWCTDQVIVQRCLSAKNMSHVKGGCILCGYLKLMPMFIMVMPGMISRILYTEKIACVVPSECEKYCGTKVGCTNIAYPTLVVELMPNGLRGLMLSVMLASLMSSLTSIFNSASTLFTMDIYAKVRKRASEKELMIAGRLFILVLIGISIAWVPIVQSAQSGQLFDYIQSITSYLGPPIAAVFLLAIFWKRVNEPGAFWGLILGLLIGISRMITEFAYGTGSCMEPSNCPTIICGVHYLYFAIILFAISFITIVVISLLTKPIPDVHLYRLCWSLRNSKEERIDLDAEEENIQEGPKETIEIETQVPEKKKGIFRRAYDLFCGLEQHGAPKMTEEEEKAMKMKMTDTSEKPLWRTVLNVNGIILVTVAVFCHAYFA", "experiment": "SGLT current measurement in oocytes, hSGLT1 D268H", "format": "cell-based", "conditions": "10 mM αMDG, Vm = −50 mV; oocytes, 22 °C", "procedure": "(§1) Xenopus laevis (Nasco) oocytes (V–VI) were prepared as previously described[20] and injected with 50 nl of cRNA (1 μg/μl). […] Briefly, oocytes were incubated for 30 min in the presence of 50 μM αMDG (5 μM [^14C]αMDG) in a buffer containing (in mM) 100 NaCl, 2 KCl, 1 MgCl2, 1 CaCl2, and 10 N-(2-hydroxyethyl)piperazine-N′-(2-ethanesulfonic acid) (HEPES)/Tris (pH 7.5). After incubation, oocytes were rinsed thoroughly with ice-cold buffer containing (mM) 100 choline Cl^–, 2 KCl, 1 MgCl2, 1 CaCl2, and 10 HEPES/Tris (pH 7.5), individually lysed with 5% sodium dodecyl sulfate, and assayed for radioactivity.\nInjected oocytes were incubated at 18 °C, and after 3–4 days, two electrode voltage clamp experiments were performed as previously described. Briefly, SGLT inward glucose currents were measured as a function of the external Na^+ (0–100 mM NaCl), sugar (0–100 mM αMDG), and inhibitors (0.001–100 μM). Steady-state and hSGLT1 capacitive currents were recorded using voltage steps from a holding voltage, Vh of −60 mV, to voltages in the range of −180 to +50 mV in 20 mV increments. The apparent affinity of αMDG, K0.5, was estimated from plots of the inward current as a function of the external αMDG concentration. […] The Na^+-to-αMDG stoichiometry was determined from the reversal potential measurements using the Gibbs free energy as previously described. […]"}, "hSGLT1 Y290C": {"system": "hSGLT1 Y290C", "parameters": "method as in PMID 22159082", "conditions": "oocytes, 22 °C; cited from earlier work"}, "hSGLT2 wild-type": {"biological_target": "T2, hSGLT2 wild-type (Homo sapiens, UniProt P31639)", "T2 sequence (P31639 1-672)": "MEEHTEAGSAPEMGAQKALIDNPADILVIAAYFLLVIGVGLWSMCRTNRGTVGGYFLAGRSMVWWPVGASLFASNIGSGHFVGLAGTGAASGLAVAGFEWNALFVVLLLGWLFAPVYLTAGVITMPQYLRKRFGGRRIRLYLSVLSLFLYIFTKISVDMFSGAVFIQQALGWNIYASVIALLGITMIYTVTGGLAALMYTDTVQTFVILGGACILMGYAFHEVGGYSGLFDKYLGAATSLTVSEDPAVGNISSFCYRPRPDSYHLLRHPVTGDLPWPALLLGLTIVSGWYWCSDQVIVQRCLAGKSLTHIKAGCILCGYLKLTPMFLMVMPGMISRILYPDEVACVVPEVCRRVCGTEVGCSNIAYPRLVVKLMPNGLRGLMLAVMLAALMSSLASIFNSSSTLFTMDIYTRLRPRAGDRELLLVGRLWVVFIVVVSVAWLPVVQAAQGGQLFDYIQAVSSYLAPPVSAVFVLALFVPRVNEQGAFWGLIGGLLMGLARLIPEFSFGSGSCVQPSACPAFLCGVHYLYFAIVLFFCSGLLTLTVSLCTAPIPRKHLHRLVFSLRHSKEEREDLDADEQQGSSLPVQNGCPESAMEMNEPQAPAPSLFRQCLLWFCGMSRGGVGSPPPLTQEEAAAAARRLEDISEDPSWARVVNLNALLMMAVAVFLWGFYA", "T2 sequence (Q13113 1-114 partner)": "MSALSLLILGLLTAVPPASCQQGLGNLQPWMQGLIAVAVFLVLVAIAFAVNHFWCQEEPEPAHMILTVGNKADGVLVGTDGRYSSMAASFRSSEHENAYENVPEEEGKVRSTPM", "experiment": "SGLT current measurement in oocytes, hSGLT2 wild-type (MAP17 co-injected)", "format": "cell-based", "parameters": "expressed in transfected cells; host or cells: Xenopus laevis oocytes injected with hSGLT2 cRNA and MAP17 cRNA", "conditions": "22 °C", "procedure": "as §1\nInjected oocytes were incubated at 18 °C, and after 3–4 days, two electrode voltage clamp experiments were performed as previously described. Briefly, SGLT inward glucose currents were measured as a function of the external Na^+ (0–100 mM NaCl), sugar (0–100 mM αMDG), and inhibitors (0.001–100 μM). Steady-state and hSGLT1 capacitive currents were recorded using voltage steps from a holding voltage, Vh of −60 mV, to voltages in the range of −180 to +50 mV in 20 mV increments. The apparent affinity of αMDG, K0.5, was estimated from plots of the inward current as a function of the external αMDG concentration. Under our experimental conditions, K0.5 is a close approximation of the αMDG binding constant to the Na^+-bound outward conformation of SGLT. The apparent affinity for Na^+, K0.5, was estimated from plots of the αMDG inward current as a function of external Na^+ concentration. For hSGLT1 the interpretation of K0.5 is more complex owing to the presence of two Na^+ binding sites. In this case, the K0.5 is a lumped coefficient for Na^+ binding to the two sites in the outward-facing hSGLT1 conformation. […] The Na^+-to-αMDG stoichiometry was determined from the reversal potential measurements using the Gibbs free energy as previously described. The stoichiometry determinations were reinforced by estimates of αMDG and Na^+ Hill coefficients, and in some cases, by measurement of ^22Na and [^14C]αMDG uptakes under voltage clamp, [21]."}}}
{"smiles": "[Na+]", "note": "[Na^+]", "values": [{"measurement": "K0.5 Na^+", "setting": "hSGLT1 D268H", "value": "17 ± 1.2", "unit": "mM"}, {"measurement": "K0.5 Na^+", "setting": "hSGLT1 Y290C", "value": "46 ± 5[20] mM"}, {"measurement": "K0.5 Na^+", "setting": "hSGLT2 wild-type", "value": "22 ± 1", "unit": "mM"}]}
